Measurements published in patent US6852761B2, “Polycyclic aryl and heteroaryl substituted benzenes useful for selective inhibition of the coagulation cascade” (Pharmacia Corporation, priority 2000, dated 2005).

Tests used:
[1] = target: T1, recombinant soluble tissue factor and recombinant human factor VIIa (TF-VIIA) (Homo sapiens, UniProt P08709); assay: TF-VIIa Assay; assay type: biochemical
T1 construct: conversion of coagulation factor VII to VIIa by Xa; purchased American Diagnostica, Greenwich Conn; (factor VIIa); host or cells: soluble TF made in house in E. coli

[2] = target: T2, human factor Xa (Homo sapiens, UniProt P00742); assay: Xa Assay; assay type: biochemical
T2 construct: leads from XII to XIIa to XIa to IXa and to the conversion of X to Xa; purchased Enzyme Research Laboratories, South Bend Ind
Procedure: 0.3 nM human factor Xa and 0.15 mM N-α-Benzyloxycarbonyl-D-arginyl-L-glycyl-L-arginine-p-nitroaniline-dihydrochloride (S-2765) are added to a 96-well assay plate containing either inhibitor or buffer (50 mM Tris-HCl, pH 8.0, 100 mM NaCl, 0.1% BSA). The reaction, in a final volume of 100 ul is measured immediately at 405 nm to determine background absorbance. The plate is incubated at room temperature for 60 min, at which time the rate of hydrolysis of the substrate is measured by monitoring the reaction at 405 nm for the release of p-nitroaniline. Percent inhibition of Xa activity is calculated from OD405 nm value from the experimental and control sample.
Recombinant soluble TF, consisting of amino acids 1-219 of the mature protein sequence was expressed in E. coli and purified using a Mono Q Sepharose FPLC. Recombinant human VIIa was purchased from American Diagnostica, Greenwich Conn. and chromogenic substrate N-Methylsulfonyl-D-phe-gly-arg-p-nitroaniline was prepared by American Peptide Company, Inc., Sunnyvale, Calif. Factor Xa was obtained from Enzyme Research Laboratories, South Bend Ind., thrombin from Calbiochem, La Jolla, Calif., and trypsin and L-BAPNA from Sigma, St. Louis Mo. The chromogenic substrates S-2765 and S-2238 were purchased from Chromogenix, Sweden.

T1 sequence (P08709 213-466 limits assumed): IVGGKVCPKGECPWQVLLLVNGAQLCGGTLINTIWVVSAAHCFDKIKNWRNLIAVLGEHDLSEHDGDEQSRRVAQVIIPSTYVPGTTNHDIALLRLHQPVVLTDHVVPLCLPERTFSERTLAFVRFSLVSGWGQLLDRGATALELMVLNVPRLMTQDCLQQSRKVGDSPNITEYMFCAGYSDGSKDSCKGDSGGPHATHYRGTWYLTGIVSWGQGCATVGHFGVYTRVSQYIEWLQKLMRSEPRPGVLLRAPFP
T1 sequence (P08709 61-212 limits assumed): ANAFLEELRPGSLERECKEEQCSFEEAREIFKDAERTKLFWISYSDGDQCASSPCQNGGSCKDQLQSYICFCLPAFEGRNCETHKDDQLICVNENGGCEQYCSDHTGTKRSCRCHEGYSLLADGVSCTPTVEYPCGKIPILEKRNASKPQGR
T1 sequence (P13726 33-251 partner limits assumed): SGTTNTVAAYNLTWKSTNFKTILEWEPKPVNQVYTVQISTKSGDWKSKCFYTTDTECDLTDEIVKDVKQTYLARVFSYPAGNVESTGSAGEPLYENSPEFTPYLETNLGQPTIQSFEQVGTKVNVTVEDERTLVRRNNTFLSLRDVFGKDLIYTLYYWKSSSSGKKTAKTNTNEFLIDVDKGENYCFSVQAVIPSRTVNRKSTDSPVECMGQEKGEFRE
T2 sequence (P00742 235-488 limits assumed): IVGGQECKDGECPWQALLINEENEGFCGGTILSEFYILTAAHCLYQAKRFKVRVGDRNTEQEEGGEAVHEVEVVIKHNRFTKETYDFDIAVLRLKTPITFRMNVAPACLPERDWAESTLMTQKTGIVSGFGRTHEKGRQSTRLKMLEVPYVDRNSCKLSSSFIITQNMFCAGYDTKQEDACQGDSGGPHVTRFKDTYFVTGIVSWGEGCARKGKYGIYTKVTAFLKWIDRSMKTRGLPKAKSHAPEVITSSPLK
T2 sequence (P00742 41-179 limits assumed): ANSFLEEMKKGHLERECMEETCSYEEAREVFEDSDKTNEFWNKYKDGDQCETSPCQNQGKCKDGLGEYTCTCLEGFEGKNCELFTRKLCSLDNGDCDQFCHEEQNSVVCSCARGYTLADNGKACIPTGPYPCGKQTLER

Row | IC50 [1] [µM] | IC50 [2] [µM] | SMILES
1 | > 30 | > 30 | CN(C)c1ccc(CNC(=O)c2cc(NS(=O)(=O)Cc3ccccc3)ccc2Sc2ccccc2)cc1 [Example 2]
2 | > 30 | > 30 | O=C(NCc1ccncc1)c1cc(NS(=O)(=O)Cc2ccccc2)ccc1Sc1ccccc1 [Example 3]
3 | > 30 | > 30 | O=C(Cc1c(F)ccc(NS(=O)(=O)Cc2ccccc2)c1F)NCC1CCNCC1 [Example 9]
4 | > 30 | – | CN(C)c1ccc(CNC(=O)Cc2c(F)ccc(NS(=O)(=O)Cc3ccccc3)c2F)cc1 [Example 10]
5 | > 30 | – | O=C(Cc1c(F)ccc(NS(=O)(=O)Cc2ccccc2)c1F)NCc1ccncc1 [Example 11]
6 | > 30 | > 30 | O=C(Cc1c(F)ccc(NS(=O)(=O)Cc2ccccc2)c1F)NCCCn1ccnc1 [Example 12]
7 | > 30 | – | N=C(N)c1cccc(CNC(=O)Cc2c(F)ccc(NS(=O)(=O)Cc3ccccc3)c2F)c1 [Example 13]
8 | > 30 | > 30 | N=C(N)c1ccc(CNC(=O)Cc2c(F)ccc(NS(=O)(=O)Cc3ccccc3)c2F)cc1 [Example 14]
9 | > 30 | > 30 | N=C(N)NCCCCCNC(=O)Cc1c(F)ccc(NS(=O)(=O)Cc2ccccc2)c1F [Example 15]
10 | – | > 30 | N=C(N)c1ccc(CNC(=O)Cc2c(-c3ccccc3)ccc(NCCc3ccccc3)c2F)cc1 [Example 17]
11 | – | > 30 | N=C(N)c1ccc(CNC(=O)Cc2c(-c3ccccc3)ccc(NCCc3ccccc3)c2O)cc1 [Example 19]
12 | – | > 30 | COc1c(NC(C)C)ccc(-c2ccccc2)c1CC(=O)NCc1ccc(C(=N)N)cc1 [Example 22]

Row | SMILES | IC50 [1] [µM] | IC50 [2] [µM]
13 | O=C(NCC1CCNCC1)c1cc(NS(=O)(=O)Cc2ccccc2)ccc1Sc1ccccc1 [Example 1] | > 30 | –
14 | N=C(N)c1ccc(CNC(=O)c2cc(NS(=O)(=O)Cc3ccccc3)ccc2Sc2ccccc2)cc1 [Example 4] | > 30 | > 30
